Activity calls are given as the source filed them.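 The calls were made as follows: active = compounds raising the signal whose fitted half-maximal concentration is at or below their top tested dose (cut at about 25 µM in these data); inconclusive = flat fit at 30 to 70% activity, or a poor fit; inactive = the rest.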
Tested on: INS-1E rat beta cells, no cytokines, CellTiter-Glo ATP, 48 h
Assay: cytokine-free beta-cell viability effect – INS-1E rat cells, ATP luminescence, cherry pick, counter-screen for beta-cell apoptosis protection project, dose response (AID 463229)

SMILES | AC50
Cc1ccccc1OCC(O)CNC1CCC(NCC(O)COc2ccccc2C)CC1 (centres undefined) | 6.66 µM
Cc1ccc2c(c1)nnn2C1CCN(S(=O)(=O)c2ccc(C(=O)N3C(C)CCCC3C)cc2)CC1 (centres undefined) | 7.75 µM
CC(C)N=c1cc2n(-c3ccc(Cl)cc3)c3ccccc3nc-2cc1Nc1ccc(Cl)cc1 | 6.69 µM
COC(=O)c1ccc(NC(=O)c2cccnc2)cc1 | 7.58 µM
N=c1c2c(ncn1CCCO)Oc1ccc3ccccc3c1C2c1ccccc1 (centres undefined) | > 26 µM (inactive)
COc1ccc(S(=O)(=O)Nc2ccc3oc(C)c(C(C)=O)c3c2)cc1 | 12.3 µM
COc1ccc(Cn2c(-c3ccc(C)cc3)c[n+]3ccccc23)cc1 | 5.23 µM
N#C/C(=C\c1ccc([N+](=O)[O-])o1)c1nc2ccccc2[nH]1 | 4.09 µM
COc1ccc(NS(=O)(=O)c2ccc(N3CCOCC3)c(N)c2)cc1 | 7.12 µM
O=C(NCCCn1ccnc1)c1ccc(N2CCCCCC2)c([N+](=O)[O-])c1 | 8.09 µM
CCCCNC1=CC(=O)C(=O)c2ccccc21 | 7.75 µM
COc1ccccc1N1C(C)=CC(=C(C#N)c2nc3ccccc3s2)C=C1C | 8.66 µM
Cc1c(C(=O)N/N=C/c2c(O)ccc3ccccc23)nnn1-c1nonc1N | 2.18 µM
O=S(=O)(c1cccs1)N1CCN(CC(O)COc2cc(Cl)ccc2Cl)CC1 (centres undefined) | 13.3 µM
CCn1c(C)nc2cc(C(=O)N/N=C/c3cccc(O)c3O)ccc21 | 8.42 µM
CN1/C(=C\C(=S)Nc2ccccc2)C(C)(C)c2ccccc21 | 10.1 µM
O=C(Nc1ccc(-c2noc(-c3cccs3)n2)cc1)c1cccnc1 | 13 µM
CCOc1ccc(S(=O)(=O)N2CCCCC2)cc1NC(=O)CN1CCCC1c1cccs1 (centres undefined) | 5.24 µM
O=C(/C(=C/c1ccc(Cl)cc1)c1nc2ccccc2[nH]1)c1cccs1 | 4.4 µM
CCC(CO)Oc1cc(NCc2ccc(C)c(C)c2)c2ncn(C(C)C)c2c1 (centres undefined) | 4.91 µM
CNc1nc2cc([N+](=O)[O-])c([N+](=O)[O-])cc2nc1NC | 0.278 µM
Oc1ccc2ccccc2c1N=Nc1ccccn1 | 4.14 µM
O=C(NN=C(c1ccccc1)c1ccccn1)c1ccccc1 | 2.55 µM
CCOC(=O)c1sc(NC(=O)Nc2cccc(Cl)c2)cc1C | 7.53 µM
CC(=O)NN1C(=O)c2ccc3c4c(ccc(c24)C1=O)C(=O)N(NC(C)=O)C3=O | 3.65 µM
O=C(N/N=C/c1cc(Br)ccc1OC(=O)c1ccc(Br)cc1)c1ccncc1 | 6.01 µM
Cc1cccc2sc(NNC(=O)c3ccc(S(=O)(=O)N4CCc5ccccc5C4)cc3)nc12 | 3.93 µM

SMILES | AC50
C[C@H]1CCC/C=C/C2C[C@H](O)CC2[C@H](O)/C=C/C(=O)O1 (some centres undefined) | 0.94 µM
CCCC[n+]1ccn(C2=C([O-])c3ccccc3C(=O)/C2=N\S(=O)(=O)c2ccc(Br)cc2)c1 | 15.2 µM
COc1ccccc1CNc1ncnc2sccc12 | 11.9 µM
Cc1cc(C(=O)C(C)OC(=O)c2ccc(NC(=O)CC#N)cc2)c(C)n1-c1ccc(OC(F)F)cc1 (centres undefined) | 8.14 µM
O=C(NC(NC(=S)Nc1ccccc1)C(Cl)(Cl)Cl)c1cccc(Cl)c1 (centres undefined) | 13.9 µM
CCCCCCCCCCCCCCCC[N+](C)(C)CC | 6.57 µM
CC(C)(C)c1ccc(CSc2cnn(C(C)(C)C)c(=O)c2Cl)cc1 | < 0.195 µM
CC1C/C(=C/c2ccncc2)C(=O)/C(=C/c2ccncc2)C1 (centres undefined) | 4.62 µM
CCOC(=O)c1c(C)[nH]c(C(=O)OCC(=O)NC(C)(C)C)c1C | 13.1 µM
Cc1nc2ccccc2n1-c1nc(-c2ccco2)cc(C(F)(F)F)n1 | 1.86 µM
O=C(N/N=C\c1ccc([N+](=O)[O-])s1)c1cncc(Br)c1 | 6.53 µM
Cc1ccc(S(=O)(=O)Nc2ccc(O)c3ccccc23)c(C)c1 | 13.7 µM
O=[N+]([O-])c1cc(C(F)(F)F)ccc1NCCCCNS(=O)(=O)c1ccc(Cl)cc1 | 6.94 µM
O=[N+]([O-])c1cc(/C=N/Nc2nc3ccccc3[nH]2)c(O)cc1O | 2.01 µM
C/C(=N\NC(=O)c1cccc(Br)c1)c1ccccn1 | 1.32 µM
Cc1nc2ccccc2n1Cc1ccc(Br)cc1 | 5.63 µM
Cc1onc(-c2ccccc2)c1C(=O)NC(=S)NNC(=O)c1ccccc1O | 18.4 µM
CC1CCc2c(sc3nc(C(C)(C)C)nc(N4CCN(C(=O)CCl)CC4)c23)C1 (centres undefined) | 7.59 µM
O=[N+]([O-])c1cnc(Sc2ccncn2)s1 | 5.75 µM
Cc1ccc(S(=O)(=O)c2ccc([N+](=O)[O-])cn2)cc1 | 13.5 µM
CN(C)C(=O)c1ccc(NC(=O)c2cccnc2)cc1 | 7.27 µM
NC(N)=N/N=C/c1ccc(N(c2ccccc2)c2ccccc2)cc1 | 7.36 µM
CCC(=O)NC(c1cc(Cl)c2cccnc2c1O)C(C)C (centres undefined) | 7.3 µM
Cc1sc2ncnc(N/N=C/c3ccccc3O)c2c1C | 3.03 µM
CCN(Cc1ccccc1)C(c1ccc(C(F)(F)F)cc1)c1nnnn1C(C)(C)C (centres undefined) | 4.83 µM
NC(=S)N/N=C/c1ccc(C23CC4CC(CC(C4)C2)C3)cc1 | 12.2 µM
CCn1c(-c2ccccc2)c(C(=O)CCl)c2ccccc21 | 11.6 µM

SMILES | AC50
O=C(Nc1nc2ccc(F)cc2s1)C1CCN(S(=O)(=O)c2cc([N+](=O)[O-])ccc2Cl)CC1 | 7.01 µM
COc1ccc(Cn2c(SCc3ccc(C)cc3)nc3cc(OC)c(OC)cc3c2=N)cc1Cl | 6.89 µM
Cc1cc(C)cc(NC(=O)/C(C#N)=C/c2cn(CC(=O)NCc3ccco3)c3ccccc23)c1 | 5.06 µM
COC(=O)C1=C(C)N(Cc2ccccc2)C(=NCc2cccc(C(F)(F)F)c2)N[C@H]1c1cccc(C(F)(F)F)c1 | 7.34 µM
COc1ccccc1/C=C1\SC(=O)N(CCC(=O)NCCCn2ccnc2)C1=O | 8.2 µM
COc1cccc(N=Nc2ccc3cccnc3c2O)c1 | 6.8 µM
Cc1cc(N/N=C/c2ccc(O)cc2O)nc(-n2nc(C)cc2C)n1 | 6.67 µM
COCc1ccc(O)c2ncccc12 | 15.9 µM
O=C(Nc1cccnc1)c1cccs1 | 1.86 µM
CCc1ccc(C(=O)NNc2cc(Cl)ccc2Cl)cc1 | 8 µM
COc1cccc(N=Nc2ccc(O)c3ncccc23)c1 | 6.47 µM
O=C(N/N=C\c1c(O)ccc2ccccc12)c1ccc(S(=O)(=O)N2CCCCC2)cc1 | 1.11 µM
Clc1ccc(C(c2ccc(Cl)cc2)n2cc[n+](CC(OCc3ccc(Cl)cc3Cl)c3ccc(Cl)cc3Cl)c2)cc1 (centres undefined) | 3.69 µM
CCN(CC)c1ccc(/C=N/NC(=O)CNC(=O)C2COc3ccccc3O2)c(O)c1 (centres undefined) | 5.41 µM
CCCCn1c(NS(=O)(=O)c2ccccc2)c(S(=O)(=O)c2ccc(C)cc2)c2nc3ccccc3nc21 | 22.1 µM
Cc1cc(/C=C2/SC(=S)N(c3ccc([N+](=O)[O-])cc3)C2=O)c(C)n1-c1cccnc1 | 0.912 µM
Cc1ccc(NC(=O)c2c(C(F)(F)F)nn(C)c2SCc2cccc(C(F)(F)F)c2)cc1C | 11.8 µM
CC1CCN(Cc2c(C(=O)N/N=C/c3cc(Cl)ccc3O)nnn2-c2nonc2N)CC1 | 2.08 µM
Cc1cccc(NC(=S)N/N=C/c2ccc([N+](=O)[O-])s2)c1 | 7.67 µM
Cc1ccc(C)c(S(=O)(=O)Nc2ccc(O)c3ccccc23)c1 | 14.1 µM
CC(C)(C)C1CCC2(CC1)C(C#N)=C(SCC(=O)NC1CCCCC1)NC(=O)C2C#N (centres undefined) | 15.9 µM
CN(C)S(=O)(=O)c1cccc(CSCc2cccc(S(=O)(=O)N(C)C)c2)c1 | 7.78 µM
CC(C)(C)C1C/C(=C/c2ccccn2)C(=O)/C(=C/c2ccccn2)C1 (centres undefined) | 0.672 µM
COc1ccc(-c2nn(-c3ccccc3)cc2/C=N/N2C(=O)CSC2=S)cc1 | 6.57 µM
Cc1cccc(/C=C/C(=O)c2ccc([N+](=O)[O-])o2)c1 | 4.26 µM
